Reference: US8673929B2, “4,6-di- and 2,4,6-trisubstituted quinazoline derivatives and pharmaceutical compositions useful for treating viral infections” (priority 2006, dated 2014)

Columns and labels:
Huh-7 HCV replicon cells = assay: CC50 assay in the anti-HCV replicon assay (CellTiter-Glo); type: cell-based, human; details: 3 days incubation, CellTiter-Glo luminescence
How it was run: (§1)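 Huh-7 cells harbouring an HCV replicon (6000/well) incubated 3 days at 37° C with 3-fold serially diluted compound (0.5% DMSO final where used). EC50 from luciferase luminescence of lysed cells; CC50 from CellTiter-Glo luminescence in parallel plates.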

HCV replicon = assay: Anti-HCV replicon assay, EC50 (luciferase readout); type: cell-based; details: Huh-7 HCV replicon cells, 3 days incubation, luciferase luminescence
How it was run: as §1

Row | Molecule | CC50 (Huh-7 HCV replicon cells) [µM] | EC50 (HCV replicon) [µM]
1 | CCOc1nc(N)nc2ccc(-c3ccc(C(=O)N4CCCCC4)cc3)cc12 [Example 148, [4-(2-amino-4-ethoxy-quinazolin-6-yl)-pheny]-piperidin-1-yl-methanone] | > 20 | 1 to 10
2 | CN(C)CCCOc1nc(N)nc2ccc(-c3ccc(C(F)(F)F)cc3C(F)(F)F)cc12 [Example 226, 6-(2,4-bis-trifluoromethyl-phenyl)-4-(3-dimethyl-aminopropoxy)-quinazolin-2-ylamine] | > 20 | 1 to 10
3 | CN(C)CCCOc1nc(N)nc2ccc(-c3ccc(F)c(Cl)c3)cc12 [Example 228, 6-(3-Chloro-4-fluoro-phenyl)-4-(3-dimethyl-aminopropoxy)-quinazolin-2-ylamine] | > 20 | 1 to 10
4 | CCOc1ncnc2ccc(-c3cn[nH]c3)cc12 [Example 247, 4-ethoxy-6-(1H-pyrazo-4-yl)-quinazoline] | > 20 | 0.3 to 1
5 | CCOc1nc(NCc2ccc(S(N)(=O)=O)cc2)nc2ccc(-c3ccc(C(=O)NC4CC4)cc3)cc12 [Example 256, N-Cyclopropyl-4-[4-ethoxy-2-(4-sulfamoyl-benzylamino)-auinazolin-6-yl]-benzamide] | < 10 | < 0.3
6 | (R)-4-[2-Amino-4-(tetrahydro-furan-3-yloxy)-quinazolin-6-yl]-N-[2-(1-methyl-pyrrolidin-2-yl)-ethyl]-benzamide [Example 221] | 10 to 20 | 0.3 to 1
